Activity calls are given as the source filed them. The rule behind the calls is not given here.
What was measured:
SARS-CoV-2 = assay: Antiviral activity against SARS-CoV-2 NRC-03-nhCoV infected in african green monkey Vero E6 cells assessed as inhibition of virus-induced cytopathic effect measured after 72 hrs by crystal violet staining based assay; format: functional, organism-based; conditions: Severe acute respiratory syndrome coronavirus 2, NRC-03-nhCoV, Vero C1008, 72 h
[1] = Cytotoxicity against African green monkey Vero E6 cells measured after 72 hrs by MTT assay; format: toxicity, cell-based, Vero C1008; conditions: chlorocebus sabaeus
[2] = Selectivity index, ratio of CC50 for african green monkey Vero E6 cells to IC50 for antiviral activity against SARS-CoV-2 NRC-03-nhCoV infected in african green monkey Vero E6 cells; format: toxicity, Vero C1008; conditions: read-out: Ratio CC50/IC50
CCRF-CEM = assay: Cytotoxicity against human CCRF-CEM cells assessed as inhibition of cell growth incubated for 48 hrs by SRB assay; format: functional, cell-based
HL-60(TB) = assay: Cytotoxicity against human HL-60(TB) cells assessed as inhibition of cell growth incubated for 48 hrs by SRB assay; format: functional, cell-based
K562 = assay: Cytotoxicity against human K562 cells assessed as inhibition of cell growth incubated for 48 hrs by SRB assay; format: functional, cell-based
MOLT-4 = assay: Cytotoxicity against human MOLT-4 cells assessed as inhibition of cell growth incubated for 48 hrs by SRB assay; format: functional, cell-based
RPMI-8226 = assay: Cytotoxicity against human […] cells assessed as inhibition of cell growth incubated for 48 hrs by SRB assay; format: functional, cell-based
A549 = assay: Cytotoxicity against human A549 cells assessed as inhibition of cell growth incubated for 48 hrs by SRB assay; format: functional, cell-based
EKVX = assay: Cytotoxicity against human EKVX cells assessed as inhibition of cell growth incubated for 48 hrs by SRB assay; format: functional, cell-based
HOP-92 = assay: Cytotoxicity against human HOP-92 cells assessed as inhibition of cell growth incubated for 48 hrs by SRB assay; format: functional, cell-based
NCI-H23 = assay: Cytotoxicity against human NCI-H23 cells assessed as inhibition of cell growth incubated for 48 hrs by SRB assay; format: functional, cell-based
NCI-H322M = assay: Cytotoxicity against human NCI-H322M cells assessed as inhibition of cell growth incubated for 48 hrs by SRB assay; format: functional, cell-based
NCI-H460 = assay: Cytotoxicity against human NCI-H460 cells assessed as inhibition of cell growth incubated for 48 hrs by SRB assay; format: functional, cell-based
COLO 205 = assay: Cytotoxicity against human COLO 205 cells assessed as inhibition of cell growth incubated for 48 hrs by SRB assay; format: functional, cell-based
HCC 2998 = assay: Cytotoxicity against human HCC 2998 cells assessed as inhibition of cell growth incubated for 48 hrs by SRB assay; format: functional, cell-based
HCT-116 = assay: Cytotoxicity against human HCT-116 cells assessed as inhibition of cell growth incubated for 48 hrs by SRB assay; format: functional, cell-based
HCT-15 = assay: Cytotoxicity against human HCT-15 cells assessed as inhibition of cell growth incubated for 48 hrs by SRB assay; format: functional, cell-based
HT-29 = assay: Cytotoxicity against human HT-29 cells assessed as inhibition of cell growth incubated for 48 hrs by SRB assay; format: functional, cell-based
KM12 = assay: Cytotoxicity against human KM12 cells assessed as inhibition of cell growth incubated for 48 hrs by SRB assay; format: functional, cell-based
SW-620 = assay: Cytotoxicity against human SW620 cells assessed as inhibition of cell growth incubated for 48 hrs by SRB assay; format: functional, cell-based
SNB-19 = assay: Cytotoxicity against human SNB-19 cells assessed as inhibition of cell growth incubated for 48 hrs by SRB assay; format: functional, cell-based
U-251 = assay: Cytotoxicity against human U-251 cells assessed as inhibition of cell growth incubated for 48 hrs by SRB assay; format: functional, cell-based
LOX IMVI = assay: Cytotoxicity against human LOX IMVI cells assessed as inhibition of cell growth incubated for 48 hrs by SRB assay; format: functional, cell-based
Malme-3M = assay: Cytotoxicity against human Malme-3M cells assessed as inhibition of cell growth incubated for 48 hrs by SRB assay; format: functional, cell-based
M14 = assay: Cytotoxicity against human M14 cells assessed as inhibition of cell growth incubated for 48 hrs by SRB assay; format: functional, cell-based
SK-MEL-28 = assay: Cytotoxicity against human SK-MEL-28 cells assessed as inhibition of cell growth incubated for 48 hrs by SRB assay; format: functional, cell-based
UACC-257 = assay: Cytotoxicity against human UACC-257 cells assessed as inhibition of cell growth incubated for 48 hrs by SRB assay; format: functional, cell-based
IGROV-1 = assay: Cytotoxicity against human IGROV-1 cells assessed as inhibition of cell growth incubated for 48 hrs by SRB assay; format: functional, cell-based
OVCAR-3 = assay: Cytotoxicity against human OVCAR-3 cells assessed as inhibition of cell growth incubated for 48 hrs by SRB assay; format: functional, cell-based
OVCAR-5 = assay: Cytotoxicity against human OVCAR-5 cells assessed as inhibition of cell growth incubated for 48 hrs by SRB assay; format: functional, cell-based
OVCAR-8 = assay: Cytotoxicity against human OVCAR-8 cells assessed as inhibition of cell growth incubated for 48 hrs by SRB assay; format: functional, cell-based
NCI/ADR-RES = assay: Cytotoxicity against human NCI/ADR-RES cells assessed as inhibition of cell growth incubated for 48 hrs by SRB assay; format: functional, cell-based
SK-OV-3 = assay: Cytotoxicity against human SK-OV-3 cells assessed as inhibition of cell growth incubated for 48 hrs by SRB assay; format: functional, cell-based
786-0 = assay: Cytotoxicity against human 786-0 cells assessed as inhibition of cell growth incubated for 48 hrs by SRB assay; format: functional, cell-based
A498 = assay: Cytotoxicity against human A498 cells assessed as inhibition of cell growth incubated for 48 hrs by SRB assay; format: functional, cell-based
ACHN = assay: Cytotoxicity against human ACHN cells assessed as inhibition of cell growth incubated for 48 hrs by SRB assay; format: functional, cell-based
RXF 393 = assay: Cytotoxicity against human RXF 393 cells assessed as inhibition of cell growth incubated for 48 hrs by SRB assay; format: functional, cell-based
SN12C = assay: Cytotoxicity against human SN12C cells assessed as inhibition of cell growth incubated for 48 hrs by SRB assay; format: functional, cell-based
TK-10 = assay: Cytotoxicity against human TK-10 cells assessed as inhibition of cell growth incubated for 48 hrs by SRB assay; format: functional, cell-based
PC-3 = assay: Cytotoxicity against human PC-3 cells assessed as inhibition of cell growth incubated for 48 hrs by SRB assay; format: functional, cell-based
DU-145 = assay: Cytotoxicity against human DU-145 cells assessed as inhibition of cell growth incubated for 48 hrs by SRB assay; format: functional, cell-based
MCF7 = assay: Cytotoxicity against human MCF7 cells assessed as inhibition of cell growth incubated for 48 hrs by SRB assay; format: functional, cell-based
MDA-MB-231 = assay: Cytotoxicity against human MDA-MB-231 cells assessed as inhibition of cell growth incubated for 48 hrs by SRB assay; format: functional, cell-based
Hs578Bst = assay: Cytotoxicity against human Hs578Bst cells assessed as inhibition of cell growth incubated for 48 hrs by SRB assay; format: functional, cell-based
BT-549 = assay: Cytotoxicity against human BT-549 cells assessed as inhibition of cell growth incubated for 48 hrs by SRB assay; format: functional, cell-based
MDA-MB-468 = assay: Cytotoxicity against human MDA-MB-468 cells assessed as inhibition of cell growth incubated for 48 hrs by SRB assay; format: functional, cell-based

## Cn1cnc2c1c(=O)n(CC(=O)Nc1ccc(S(=O)(=O)Nc3ncccn3)cc1)c(=O)n2C
SARS-CoV-2
  IC50: 8.86 µM
[1]
  CC50 at 72 h: 1140 µM
[2]
  selectivity ratio: 129
CCRF-CEM
  Activity: inactive
HL-60(TB)
  Activity: inactive
K562
  Activity: inactive
MOLT-4
  Activity: inactive
RPMI-8226
  Activity: inactive
A549
  Activity: inactive
EKVX
  Activity: inactive
HOP-92
  Activity: inactive
NCI-H23
  Activity: inactive
NCI-H322M
  Activity: inactive
NCI-H460
  Activity: inactive
COLO 205
  Activity: inactive
HCC 2998
  Activity: inactive
HCT-116
  Activity: inactive
HCT-15
  Activity: inactive
HT-29
  Activity: inactive
KM12
  Activity: inactive
SW-620
  Activity: inactive
SNB-19
  Activity: inactive
U-251
  Activity: inactive
LOX IMVI
  Activity: inactive
Malme-3M
  Activity: inactive
M14
  Activity: inactive
SK-MEL-28
  Activity: inactive
UACC-257
  Activity: inactive
IGROV-1
  Activity: inactive
OVCAR-3
  Activity: inactive
OVCAR-5
  Activity: inactive
OVCAR-8
  Activity: inactive
NCI/ADR-RES
  Activity: inactive
SK-OV-3
  Activity: inactive
786-0
  Activity: inactive
A498
  Activity: inactive
ACHN
  Activity: inactive
RXF 393
  Activity: inactive
SN12C
  Activity: inactive
TK-10
  Activity: inactive
PC-3
  Activity: inactive
DU-145
  Activity: inactive
MCF7
  Activity: inactive
MDA-MB-231
  Activity: inactive
Hs578Bst
  Activity: inactive
BT-549
  Activity: inactive
MDA-MB-468
  Activity: inactive

## Cn1c(=O)c2c(ncn2CCC(=O)Nc2ccc(S(=O)(=O)Nc3ncccn3)cc2)n(C)c1=O
SARS-CoV-2
  IC50: 38.4 µM
[1]
  CC50 at 72 h: 3940 µM
[2]
  selectivity ratio: 103
CCRF-CEM
  Activity: inactive
HL-60(TB)
  Activity: inactive
K562
  Activity: inactive
MOLT-4
  Activity: inactive
RPMI-8226
  Activity: inactive
A549
  Activity: inactive
EKVX
  Activity: inactive
HOP-92
  Activity: inactive
NCI-H23
  Activity: inactive
NCI-H322M
  Activity: inactive
NCI-H460
  Activity: inactive
COLO 205
  Activity: inactive
HCC 2998
  Activity: inactive
HCT-116
  Activity: inactive
HCT-15
  Activity: inactive
HT-29
  Activity: inactive
KM12
  Activity: inactive
SW-620
  Activity: inactive
SNB-19
  Activity: inactive
U-251
  Activity: inactive
LOX IMVI
  Activity: inactive
Malme-3M
  Activity: inactive
M14
  Activity: inactive
SK-MEL-28
  Activity: inactive
UACC-257
  Activity: inactive
IGROV-1
  Activity: inactive
OVCAR-3
  Activity: inactive
OVCAR-5
  Activity: inactive
OVCAR-8
  Activity: inactive
NCI/ADR-RES
  Activity: inactive
SK-OV-3
  Activity: inactive
786-0
  Activity: inactive
A498
  Activity: inactive
ACHN
  Activity: inactive
RXF 393
  Activity: inactive
SN12C
  Activity: inactive
TK-10
  Activity: inactive
PC-3
  Activity: inactive
DU-145
  Activity: inactive
MCF7
  Activity: inactive
MDA-MB-231
  Activity: inactive
Hs578Bst
  Activity: inactive
BT-549
  Activity: inactive
MDA-MB-468
  Activity: inactive
